The values that follow come from ChEMBL document CHEMBL5370622 (J Nat Prod, 2023).

Experiment [1] deals with Dual specificity tyrosine-phosphorylation-regulated kinase 1B (Homo sapiens) (UniProt Q9Y463). In words: Inhibition of human DYRK1B at 50 nM in presence of ATP by radiometric hotspot kinase assay relative to control.
Experiment [2] deals with Dual specificity tyrosine-phosphorylation-regulated kinase 1A (Homo sapiens) (UniProt Q13627). In words: Inhibition of human DYRK1A at 50 nM in presence of ATP by radiometric hotspot kinase assay relative to control.
The target in experiment [3] is T1, Dual specificity tyrosine-phosphorylation-regulated kinase 2 (Homo sapiens) (UniProt Q92630).
T1 sequence (whole entry): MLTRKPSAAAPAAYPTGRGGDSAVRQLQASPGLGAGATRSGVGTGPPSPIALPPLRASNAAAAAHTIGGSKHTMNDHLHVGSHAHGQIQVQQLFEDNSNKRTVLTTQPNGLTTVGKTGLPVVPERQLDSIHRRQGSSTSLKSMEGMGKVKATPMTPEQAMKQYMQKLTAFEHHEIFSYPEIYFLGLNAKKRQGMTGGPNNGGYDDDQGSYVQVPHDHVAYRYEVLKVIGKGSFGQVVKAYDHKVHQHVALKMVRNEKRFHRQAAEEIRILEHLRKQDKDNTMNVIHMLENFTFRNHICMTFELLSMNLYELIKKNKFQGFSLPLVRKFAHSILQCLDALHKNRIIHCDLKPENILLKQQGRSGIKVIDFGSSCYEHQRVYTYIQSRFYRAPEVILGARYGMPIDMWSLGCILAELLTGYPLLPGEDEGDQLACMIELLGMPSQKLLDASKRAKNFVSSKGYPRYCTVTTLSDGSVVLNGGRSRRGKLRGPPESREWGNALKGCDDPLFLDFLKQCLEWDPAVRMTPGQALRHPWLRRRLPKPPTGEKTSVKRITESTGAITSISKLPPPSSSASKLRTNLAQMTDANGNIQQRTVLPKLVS
Description: Inhibition of human DYRK2 at 50 nM in presence of ATP by radiometric hotspot kinase assay relative to control.

Experiment [4] concerns the target T2, Dual specificity tyrosine-phosphorylation-regulated kinase 3 (Homo sapiens) (UniProt O43781).
T2 sequence (whole entry): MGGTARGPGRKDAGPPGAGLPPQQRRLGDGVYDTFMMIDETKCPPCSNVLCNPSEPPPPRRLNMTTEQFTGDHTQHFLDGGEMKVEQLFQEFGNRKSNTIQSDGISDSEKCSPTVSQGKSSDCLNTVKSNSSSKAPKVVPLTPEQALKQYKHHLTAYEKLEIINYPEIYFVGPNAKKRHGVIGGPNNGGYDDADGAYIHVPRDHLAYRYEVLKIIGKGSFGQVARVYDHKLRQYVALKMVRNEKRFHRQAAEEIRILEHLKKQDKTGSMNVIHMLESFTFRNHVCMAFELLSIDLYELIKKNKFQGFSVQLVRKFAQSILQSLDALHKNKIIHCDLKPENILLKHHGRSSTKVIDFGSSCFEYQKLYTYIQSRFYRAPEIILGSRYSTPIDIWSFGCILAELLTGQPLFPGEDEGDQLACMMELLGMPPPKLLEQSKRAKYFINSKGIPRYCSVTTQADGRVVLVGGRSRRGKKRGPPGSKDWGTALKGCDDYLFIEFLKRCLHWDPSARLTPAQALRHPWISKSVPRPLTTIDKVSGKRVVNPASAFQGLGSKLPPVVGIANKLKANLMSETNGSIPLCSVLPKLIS
Description: Inhibition of human DYRK3 at 50 nM in presence of ATP by radiometric hotspot kinase assay relative to control.

Experiment [5] in a line: Binding affinity to human full length […] gene fusion of J-PKAc alpha chimeric protein expressed in Escherichia coli BL21 (DE3) cells assessed as dissociation constant by MST assay.
A short description of experiment [6]: Inhibition of human full length […] gene fusion of J-PKAc alpha chimeric protein expressed in Escherichia coli BL21 (DE3) cells using CREB KRREILSRRPSYR-biotinylated peptide as substrate incubated for 45 mins in presence of ATP by ELISA.
The target of experiment [7] is cAMP-dependent protein kinase catalytic subunit alpha (Homo sapiens, UniProt P17612). Description: Inhibition of wild type PKAc alpha (unknown origin) using CREB KRREILSRRPSYR-biotinylated peptide as substrate incubated for 45 mins in presence of ATP by ELISA. Background: An ELISA detects its analyte on a solid surface through an enzyme-linked reagent.

Some results are limits rather than exact numbers.

Chain of Dual specificity tyrosine-phosphorylation-regulated kinase 1B (Homo sapiens) (Q9Y463 whole entry, looked up): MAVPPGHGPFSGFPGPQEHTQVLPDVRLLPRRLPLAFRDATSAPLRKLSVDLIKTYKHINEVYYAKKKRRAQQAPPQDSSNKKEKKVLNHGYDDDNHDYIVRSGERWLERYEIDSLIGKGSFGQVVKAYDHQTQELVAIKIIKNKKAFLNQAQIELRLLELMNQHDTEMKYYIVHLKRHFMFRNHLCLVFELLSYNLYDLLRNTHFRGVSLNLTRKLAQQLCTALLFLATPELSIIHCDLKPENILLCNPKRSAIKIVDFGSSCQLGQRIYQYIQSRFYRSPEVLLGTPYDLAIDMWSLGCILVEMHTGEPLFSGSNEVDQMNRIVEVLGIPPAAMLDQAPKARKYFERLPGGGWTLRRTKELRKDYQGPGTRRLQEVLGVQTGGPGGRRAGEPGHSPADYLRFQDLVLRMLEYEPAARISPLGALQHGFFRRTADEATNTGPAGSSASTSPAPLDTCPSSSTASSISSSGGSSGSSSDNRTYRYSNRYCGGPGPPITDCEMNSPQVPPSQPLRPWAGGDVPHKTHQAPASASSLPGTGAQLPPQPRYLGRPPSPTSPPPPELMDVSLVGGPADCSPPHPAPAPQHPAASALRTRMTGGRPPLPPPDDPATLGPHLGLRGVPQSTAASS

In general, inhibition refers to the change of the read-out against control, counted positive when it falls. For the compound `Cn1cncc1C1=CN(c2ncnc3[nH]cnc23)CCS1`, the inhibition came to 23% in experiment [1], 23% in experiment [2], 21% in experiment [3] and 16% in experiment [4].
One may read the Kd as the equilibrium constant for the complex coming apart. By IC50 is commonly meant the concentration that inhibits the measured activity by half. As to `Cn1cncc1C1=CN(c2ncnc3[nH]c(=O)[nH]c23)CCS1`, in experiment [5], the Kd came to 37 µM. Moreover, the figures for the 50% inhibitory concentration (IC50) in experiment [6] and in experiment [7] were 79 µM and 90 µM, respectively.
Turning to `Cn1c(Br)nc(Br)c1C1=CN(c2ncnc3[nH]cnc23)CCS1`, in experiment [6], the half-maximal inhibitory concentration (IC50) is above 200 µM.
For `Cn1cncc1C1=CN(c2ncnc3[nH]cnc23)CCS1(=O)=O`, in experiment [6], the half-inhibitory concentration (IC50) is above 200 µM.
Turning to `Cn1cnc(Br)c1C1=CN(c2ncnc3[nH]cnc23)CCS1`, the equilibrium dissociation constant (Kd) in experiment [5] was determined as 3 µM. Further, the concentration for half-maximal inhibition (IC50) is 1.04 µM in experiment [6] and 1.1 µM in experiment [7]. Besides, the inhibition in experiment [1] stood at 49%; in experiment [2], 61%; in experiment [3], 56%; in experiment [4], 49%.
With `Cn1cncc1C1=CN(c2ncnc3[nH]cnc23)CC[S+]1[O-]` (configuration not stated), the concentration for half-maximal inhibition (IC50) in experiment [6] was above 200 µM.
